The values below come from ChEMBL document CHEMBL3507680, “University of Dundee, Gates Library screen for HepG2 cell viability”.

The nature of this data set: Human HepG2 cell viability assay in 384 well format. The format is toxicity, cell-based. The arrangement: dose 125 nL, time 70.5 hour; concentration not given beside the values. The note with it: HepG2 cells, read-out: Inhibition.

With `COc1ccc(C(=O)C2CCCN(c3nccc(N)n3)C2)c(C)c1` (centres undefined), the cytotoxicity at 70.5 h was -4.73%.
The figure for `Cc1nc(N2CCC3(CCCNC3=O)C2)nc2c1CCCC2` (centres undefined) is -3.11%; for `Cc1cc(C)c(C(=O)NC2CCN(c3ncccc3C#N)CC2)c(=O)[nH]1` it is -11.1%; for `CCn1ccnc1C1CCN(Cc2cccc(C)n2)CC1` it is 2.62%.
The figure for `CC(C)=CCN1CCN(C(=O)c2snnc2C)[C@H]2CS(=O)(=O)C[C@H]21` is -9.09%; for `Cc1cccc(=O)n1CCCNc1nc(N(C)C)nc2c1CCNC2` it is 18.8%; for `COc1ccc2[nH]nc(CN3CCN(Cc4cccc(F)c4)CC3)c2c1` it is 4.06%.
The same measure for `Cc1nc[nH]c1CN1CCCC12CCN(c1nc3ccccc3s1)CC2`: -1.37%; for `Cc1nc(CCN)cc(N2CCC(O)(c3ccc(Cl)cc3)CC2)n1`: 19.3%.
`Nc1nnc(CCNc2ncnc3c2CCN(C(=O)C2CC2)C3)s1`: the cytotoxicity at 70.5 h was -4.19%.
Take `O=C(NCCCn1cnnc1)C1CCCN(C2CCCC2)C1` (centres undefined): the cytotoxicity at 70.5 h was determined as 26.7%.
`COc1ccc(CCN)cc1-c1ccc(S(C)(=O)=O)cc1`: the cytotoxicity at 70.5 h is -8.83%.
The figure for `CN(C)c1cnn(CC(=O)N2CCN(c3ccccc3)CC2)c(=O)c1` is -5.83%; for `CCc1cc(C(=O)N2CCCn3nc(CCC(=O)O)cc3C2)cs1` it is -8.44%.
The same measure for `O=S(=O)(NCCn1cc(C2CCOC2)nn1)c1ccc(Cl)cc1` (centres undefined): 17.5%; for `COc1ccc(OC)c(C2CCN(C(=O)C3CCOCC3)C2)c1` (centres undefined): -6.78%.
The figure for `Cc1cc(F)ccc1OC1(C(=O)O)CCN(Cc2c[nH]cn2)CC1` is -4.85%; for `CCC[C@H]1CN(Cc2ccc(N(C)C)nc2)C[C@@H]1NC(=O)CSC` it is -6.28%; for `COCCC(=O)N1CCCC2(CCC(=O)N(CCc3c[nH]cn3)C2)C1` (centres undefined) it is -5.35%.
For `CCOc1cccc(C(=O)N2C[C@H]3CC[C@@H]2CN(C(=O)C2CCC2)C3)c1`, the cytotoxicity at 70.5 h is 23.1%.
The figure for `CCOC(=O)CNC(=O)N1CCCC(CNC(=O)c2ccco2)C1` (centres undefined) is -1.85%; for `CCC(=O)Nc1cccc(OCC(=O)N(C)Cc2nc(C)c[nH]2)c1` it is -4.8%; for `COc1ccc(C(=O)C2CCCN(CCc3ccccc3)C2)c(OC)c1` (centres undefined) it is 18.4%.
The same measure for `CS(=O)(=O)N1CCC(Oc2ccc(C(=O)NCC3CCC3)cc2Cl)CC1`: -12.8%.
The same measure for `O=C(O)CSc1nnc(-c2cn[nH]c2)n1-c1ccccc1C(F)(F)F`: -3.6%; for `CC[C@@H](NC(C)=O)C(=O)NCc1cccnc1Oc1ccccc1OC`: 8.31%; for `COc1ccc(F)c(-c2nccn2CCN2CCCC2)c1`: 33.7%.
Turning to `Cc1ccnc(NCC2(N(C)C)CCOCC2)n1`, the cytotoxicity at 70.5 h is -2.1%.
The figure for `COc1cc(C)cc(C(C(=O)O)N2CCN(C3CCCC3)CC2)c1OC` (centres undefined) is -2.66%; for `Cc1ccccc1N1CCN(C(=O)Cc2ccc3c(c2)OCO3)CC1=O` it is -2.79%; for `CC(C)(O)CCc1cccc(C(=O)N2CCC3(CCO3)CC2)c1` it is -1.91%.
The figure for `O=C(N[C@@H]1CCN(Cc2ccc(F)cc2F)C[C@H]1O)c1cccnc1` is 8.03%.
The same measure for `CCc1nc2c(c(N(C)Cc3nncn3CCOC)n1)CCNCC2`: -8.26%; for `Cn1cc(CNCC2(O)CCCN(Cc3ccc(F)c(F)c3)C2=O)cn1` (centres undefined): -3.67%; for `CNCc1n[nH]c(=O)n1-c1ccccc1Oc1ccccc1`: 1.39%.
For the compound `CCS(=O)(=O)c1ncc(CN(C)CCc2ccccn2)n1CCOC`, the cytotoxicity at 70.5 h is -8.19%.
Regarding `Cc1noc(C)c1CN(C)c1ncnc2onc(C)c12`, the cytotoxicity at 70.5 h came out at 9.42%.
As to `COC(=O)CC1CCN(C(=O)Nc2ccc(-c3ccn[nH]3)cc2)C1` (centres undefined), the cytotoxicity at 70.5 h stood at 1.65%.
Take `CCC1CN(C(=O)c2csc3nc(-c4ccc(Cl)cc4)cn23)CCN1` (centres undefined): the cytotoxicity at 70.5 h was -12.3%.
The same measure for `Cc1c(CN2CC[C@@H](N3CCC(O)CC3)[C@H](O)C2)[nH]c2ccc(Cl)cc12`: -0.941%.
The same measure for `COc1c(C)cnc(CN(C)C2CCOC3(CCOCC3)C2)c1C` (centres undefined): -19.1%; for `CC(=O)NCc1cc2n(n1)CCN(Cc1cccc(Cl)c1F)C2`: 36.9%.
The same measure for `CNc1nc(C(=O)N2C[C@@H]3CCN(C)[C@@H]3C2)cs1`: -3.23%; for `CCn1c(C2CCCNC2)nn(Cc2ccc(C(=O)NC)o2)c1=O` (centres undefined): -3.04%; for `Cc1nc(CC(=O)N2CCCC[C@H](N(C)C)C2)cs1`: -7.83%.
In the case of `Cc1nccn1-c1ccc(N2CCC(NC(C)CC(C)C)CC2)cc1` (centres undefined), the cytotoxicity at 70.5 h was 10.6%.
With `CCn1nc(C)c(CN(CCOC)C(=O)c2cnc(C)nc2O)c1C`, the cytotoxicity at 70.5 h was -6.8%.
As to `CN(C)c1cncc(-c2ccnc3c2ccn3C)n1`, the cytotoxicity at 70.5 h was -0.942%.
The figure for `Cc1ccc(OC2(C(=O)O)CCN(C/C=C/c3ccco3)CC2)cc1` is -7.6%; for `COc1ccc(C(=O)O)cc1-c1cccc2c1CCNC2` it is -11.6%.
The figure for `COc1ccc2[nH]nc(CN3CCC(C(C)N(C)C)CC3)c2c1` (centres undefined) is 1.23%; for `Cc1ncnc(NCC(C)N(C)c2ccccc2)c1C` (centres undefined) it is 29.1%; for `CCC[C@@H]1CN(Cc2ccc3c(c2)OCCO3)C[C@H]1C(=O)O` it is -0.0956%.
Turning to `CC(C)NS(=O)(=O)c1cc(C(=O)O)cc(-n2cc3c(n2)CCC3)c1`, the cytotoxicity at 70.5 h was -0.272%.
The figure for `O=C1CCCN1CCc1noc(-c2ccc(Cl)cc2)n1` is -10.6%; for `O=C(CCc1cc2n(n1)CCCNC2)N1CCC(N2CCOC2=O)CC1` it is -3.48%; for `O=C(N[C@H]1COC[C@@H]1N1CCCC1)c1csc(Cc2ccccc2)n1` it is -14.1%.
As for `Cc1cc(C)n(C2CN(C(=O)Cn3c(C)cc(=O)c4ccccc43)C2)n1`, the cytotoxicity at 70.5 h is -5.3%.
Turning to `O=C1CCC2(CCCN(c3ncc(Cl)cc3F)C2)CN1CC1CC1` (centres undefined), the cytotoxicity at 70.5 h was -1.6%.
The figure for `CCSc1ccc(C(=O)N2CC[C@](C)(O)[C@H](C)C2)s1` is -10.1%; for `C[C@@H]1CN(C(=O)c2cc(Cn3ccc4ccccc43)[nH]n2)C[C@H](C)O1` it is 26.1%; for `COc1ccccc1C1CNC(=O)c2nc(-c3c(C)n[nH]c3C)[nH]c2C1` (centres undefined) it is -4.74%.
The same measure for `CN(C)S(=O)(=O)NCc1nc(-c2cccc(F)c2)c(-c2ccccn2)[nH]1`: -0.435%; for `CC(=O)N1CCC(C(=O)N2CCOC(CC3CCCCC3)C2)CC1` (centres undefined): 24.3%; for `CC(O)c1cn(C2CCN(C(=O)C3(C)CCCCC3)CC2)nn1` (centres undefined): 14.9%.
The figure for `COc1ccc(CCN)cc1-c1ccc(O)cc1` is -13.9%; for `CC(C)(O)CCc1cccc(C(=O)NCc2nccs2)c1` it is 3.29%.
Take `Nc1ncc(C(=O)N2CCCC(N)CC2)c(-c2ccccc2)n1` (centres undefined): the cytotoxicity at 70.5 h is 7.49%.
The same measure for `CCOC(=O)C1(Cc2ccc(Cl)cc2)CCN(Cc2ncc[nH]2)CC1`: -10.4%.
